From patent US20250144056A1, “ANTIMICROBIAL HOST DEFENSE PEPTIDE-INDUCING COMPOSITIONS AND METHODS OF PRODUCTION AND USE THEREOF” (Board of Regents for the Oklahoma Agricultural and …, priority 2022, published 2025)
Entries after “also recorded” stand apart in the source; their conditions may differ.

What was measured:
Assay type in all cases: cell-based, chicken
AvBD9 mRNA expression = assay: RT-qPCR of AvBD9 mRNA expression in HTC macrophage cells; conditions: for synergy in AvBD9 induction between HMTi and HDACi: with butyrate or mocetinostat, 24 h (FIG. 7, Panel C); for induction of AvBD9 gene expression / increase in AvBD9 expression, combination with mocetinostat: 24 h (FIG. 7, Panel D); for increase in AvBD9 expression, combination with mocetinostat: 5 μM compound in combination with 2.5 μM mocetinostat; for synergy with butyrate in AvBD9 mRNA expression: indicated concentrations in combination with 2 mM butyrate, 24 h (FIG. 4)
Description: (§1) Culture and stimulation of macrophages. Two different chicken macrophage cell lines, HTC (24) and HD11 (25), were kindly provided by Dr. Narayan C. Rath and Dr. Hyun Lillehoj of USDA-ARS and maintained in RPMI 1640 containing 10% heat-inactivated FBS, 100 U/ml penicillin, and 100 μg/ml streptomycin and subcultured every 3-4 days. After overnight seeding at 1.5×10^6 cells/well in 6-well cell culture plates, cells were treated with different concentrations of each compound for 24 h or with the indicated concentration of each compound for various lengths of time for dose-response and time-course experiments, respectively. To study the synergy between HMTi/DNMTi and HDACi, different concentrations of an HMTi or DNMTi were added to the cells in the presence or absence of an HDACi for 24 h, followed by RNA isolation and HDP gene expression analysis as described below. HTC cells were also stimulated with butyrate, BIX01294, or their combination for 24 h, followed by 3-h stimulation with 10 ng/ml LPS and subsequent expression analysis.
(§2) Total RNA extraction and gene expression analysis. Total RNA was extracted using RNAzol (Molecular Biology Research Center, Cincinnati, OH) according to the manufacturer's protocol. Gene expression was performed using reverse transcription-quantitative PCR (RT-qPCR) as previously described (27-29). Reverse transcription was performed with 300 ng of total RNA and Maxima® First Strand cDNA Synthesis Kit (ThermoFisher Scientific, Pittsburgh, PA). The cDNA was then diluted 10-fold with RNase-free water prior to real-time PCR using QuantiTect SYBR® Green PCR Kit (Qiagen, Valencia, CA) in 10-μl reactions using primers specific for HDP, barrier function, and inflammatory cytokine genes as described (27, 29, 30). PCR was run in CFX Connect Real-Time PCR System (Bio-Rad, Hercules, CA) using the following program: 95° C. for 10 min, followed by 40 cycles of 94° C. for 15 sec, 55° C. for 20 sec, and 72° C. for 30 sec. The specificity of PCR reactions was confirmed by the melting curve analysis. The glyceraldehyde-3-phosphate dehydrogenase (GAPDH) gene was used as the reference for data normalization. The fold changes in gene expression in the cells treated with individual compounds or in combinations were calculated relative to the cells treated with an equal volume of RPMI 1640 or DMSO using the ΔΔCt method (31).

AvBD9 gene promoter = assay: HTC/AvBD9-luc luciferase reporter assay; conditions: for activation of the AvBD9 gene promoter (relative luciferase activity): compound alone, different concentrations, 24 h (FIG. 2, Panel A); for synergy in luciferase activity with butyrate: different concentrations in combination with 2 mM butyrate, 24 h (FIG. 3)
Description: Culture and stimulation of a stable HTC/AvBD9-luc luciferase reporter cell line. A stable HTC/AvBD9-luc cell line was generated by cloning a 2.0-Kb AvBD9 gene promoter fragment into a lentiviral luciferase reporter vector, pGreenFire1-mCMV-Puro (System Biosciences, Palo Alto, CA) and then transfected into HTC cells as previously described (22). The stable cell line was maintained in RPMI 1640 containing 10% heat-inactivated FBS, 100 U/ml penicillin, 100 μg/mL streptomycin, and 0.5 μg/mL puromycin and subcultured every 3-4 days. To measure transcriptional activation of the AvBD9 gene promoter in response to different epigenetic compounds, cells were seeded at 4×10^4 cells/well in white 96-well tissue culture plates and stimulated in duplicate with different compounds individually or in combination for 24 h. An equal amount of a solvent was applied as a negative control. Luciferase activity was measured using STEADY-GLO® Luciferase Assay System (Promega, Madison, WI) on an L-Max II luminescence microplate reader (Molecular Devices, Sunnyvale, CA). Cell viabilities were assessed by adding alamarBlue Reagent (ThermoFisher, Waltham, MA) to cell culture 4 h before luciferase assay. Relative luciferase activity was determined for each well after normalization to the cell viability as previously described (22).

AvBD4 = assay: RT-qPCR of AvBD4 in HD11 macrophages; conditions: HD11 cells, 5 μM compound with 2 mM butyrate, 24 h (FIG. 6, Panel C)
Description: (§3) Culture and stimulation of macrophages. Two different chicken macrophage cell lines, HTC (24) and HD11 (25), were kindly provided by Dr. Narayan C. Rath and Dr. Hyun Lillehoj of USDA-ARS and maintained in RPMI 1640 containing 10% heat-inactivated FBS, 100 U/ml penicillin, and 100 μg/ml streptomycin and subcultured every 3-4 days. After overnight seeding at 1.5×10^6 cells/well in 6-well cell culture plates, cells were treated with different concentrations of each compound for 24 h or with the indicated concentration of each compound for various lengths of time for dose-response and time-course experiments, respectively. […]
(§4) Total RNA extraction and gene expression analysis. […] Gene expression was performed using reverse transcription-quantitative PCR (RT-qPCR) as previously described (27-29). […] The cDNA was then diluted 10-fold with RNase-free water prior to real-time PCR using QuantiTect SYBR® Green PCR Kit (Qiagen, Valencia, CA) in 10-μl reactions using primers specific for HDP, barrier function, and inflammatory cytokine genes as described (27, 29, 30). […] The fold changes in gene expression in the cells treated with individual compounds or in combinations were calculated relative to the cells treated with an equal volume of RPMI 1640 or DMSO using the ΔΔCt method (31).

AvBD1 = assay: RT-qPCR of AvBD1 in HD11 macrophages; conditions: HD11 cells, 5 μM compound with 2 mM butyrate, 24 h (FIG. 6, Panel B)
Description: as §3, §4

CLDN1 = assay: RT-qPCR of CLDN1 (claudin 1) in HTC cells; conditions: 24 h (FIG. 8, Panel F)
Description: as §1, §2

AvBD10 = assay: RT-qPCR of AvBD10 in HD11 macrophages; conditions: HD11 cells, 5 μM compound with 2 mM butyrate, 24 h (FIG. 6, Panel D)
Description: as §3, §4

AvBD9 = assay: RT-qPCR of AvBD9 in HD11 macrophages; conditions: HD11 cells, 5 μM compound with 2 mM butyrate, 24 h (FIG. 6, Panel A)
Description: as §3, §4

IL-8 = assay: RT-qPCR of IL-8 in HTC cells with or without LPS
Description: as §1, §2

IL-1β = assay: RT-qPCR of IL-1β in HTC cells with or without LPS
Description: as §1, §2

`COc1cc2c(cc1OCCCN1CCCC1)N=C(N)C21CCC1` [A-366] was tested, and the “synergy in AvBD9 induction between HMTi and HDACi” value (AvBD9 mRNA expression) was “marked synergy”.
For `Nc1ncn([C@@H]2O[C@H](CO)[C@@H](O)[C@H]2O)c(=O)n1` [AZA, 5-azacytidine], the “induction of AvBD9 gene expression” value (AvBD9 mRNA expression; 5 μM compound alone) was 3 fold and the “increase in AvBD9 expression, combination with mocetinostat” value (AvBD9 mRNA expression) was 1,925 fold.
With `Cc1cc(Nc2ccc(NC(=O)c3ccc(Nc4ccnc5ccccc45)cc3)cc2)nc(N)n1` [SGI-1027] the “activation of the AvBD9 gene promoter (relative luciferase activity)” value (AvBD9 gene promoter) was “weak activator”, the “synergy in luciferase activity with butyrate” value (AvBD9 gene promoter) was “no synergy” and the “induction of AvBD9 gene expression” value (AvBD9 mRNA expression; 5 μM compound alone) was 4 fold. For the same molecule, the “increase in AvBD9 expression, combination with mocetinostat” value (AvBD9 mRNA expression) was 747 fold, the “additional increase in AvBD9 of the butyrate combination over compound alone” value (AvBD9 mRNA expression; 10 µM compound + 2 mM butyrate versus 10 µM compound alone) was 8 fold and the “induction of AvBD9 mRNA expression” value (AvBD9 mRNA expression; 10 μM compound alone, 24 h (FIG. 2, Panel B)) was 51 fold. The AvBD9 expression augmented (AvBD9 mRNA expression; 10 µM compound alone, 24 h (FIG. 4, Panel C)) was 51 fold, the “AvBD9 induction when combined with butyrate” value (AvBD9 mRNA expression; 10 µM compound combined with 2 mM butyrate, 24 h (FIG. 4, Panel C)) was 411 fold and the “synergy with butyrate in AvBD9 mRNA expression” value (AvBD9 mRNA expression) was “concentration-dependent increase; also recorded: synergize”.
With `CCCc1cc(C)[nH]c(=O)c1CNC(=O)c1cc(-c2ccc(N3CCN(C(C)C)CC3)nc2)cc2c1cnn2C(C)C` [UNC1999] the “AvBD4 induction, combination with butyrate” value (AvBD4) was “synergistically induced, albeit at lower magnitudes”, the “AvBD1 induction, combination with butyrate” value (AvBD1) was “synergistically induced, albeit at lower magnitudes” and the “activation of the AvBD9 gene promoter (relative luciferase activity)” value (AvBD9 gene promoter) was “concentration-dependent activation”. For the same molecule, the “synergy in luciferase activity with butyrate” value (AvBD9 gene promoter) was “marked dose-dependent increase in the synergy”, the “CLDN1 induction, combination with mocetinostat” value (CLDN1; 5 μM UNC1999 + 2.5 μM mocetinostat) was “synergistically induced” and the “CLDN1 induction, combination with butyrate” value (CLDN1; 5 μM UNC1999 + 2 mM butyrate) was “synergistically induced”. For the same molecule, the “additional increase in AvBD9 expression of the butyrate combination over compound alone” value (AvBD9 mRNA expression; 20 μM compound + 2 mM butyrate versus 20 μM compound alone) was 14 fold, the “increase in AvBD9 mRNA expression” value (AvBD9 mRNA expression; 20 μM compound alone, 24 h (FIG. 2, Panel B), peak) was 259 fold and the “induction of AvBD9 expression” value (AvBD9 mRNA expression; 20 μM compound alone, 24 h (FIG. 4, Panels A, B)) was 324 fold. For the same molecule, the “increase in AvBD9 expression, combination with butyrate” value (AvBD9 mRNA expression; 20 μM compound in combination with 2 mM butyrate, 24 h (FIG. 4, Panels A, B)) was 4,470 fold, the “synergy with butyrate in AvBD9 mRNA expression” value (AvBD9 mRNA expression) was “concentration-dependent increase” and the “synergy in AvBD9 induction between HMTi and HDACi” value (AvBD9 mRNA expression) was “marked synergy”. For the same molecule, the “AvBD10 induction, combination with butyrate” value (AvBD10) was “synergistically induced, albeit at lower magnitudes” and the “synergy in AvBD9 induction with butyrate” value (AvBD9) was “drastic synergy”.
In the case of `CCCC(=O)[O-].[Na+]` [butyrate, Sodium butyrate], the “induction of AvBD9 expression” value (AvBD9 mRNA expression; 2 mM butyrate alone, 24 h (FIG. 4, Panel A)) is reported as 27 fold, the “effect on LPS-induced IL-8 expression” value (IL-8; compound alone 24 h, then 10 ng/ml LPS 3 h (FIG. 8, Panel E)) is reported as “potentiated” and the “activity in inducing gene expression of IL-8” value (IL-8; compound alone (2 mM butyrate or 5 μM BIX01294), without LPS (FIG. 8, Panel E)) is reported as “no or weak activity”. For the same molecule, the “effect on LPS-induced IL-1β expression” value (IL-1β; compound alone 24 h, then 10 ng/ml LPS 3 h (FIG. 8, Panel D)) was “suppressed” and the “activity in inducing gene expression of IL-1β” value (IL-1β; compound alone (2 mM butyrate or 5 μM BIX01294), without LPS (FIG. 8, Panel D)) was “no or weak activity”.
For `Nc1ccccc1NC(=O)c1ccc(CNc2nccc(-c3cccnc3)n2)cc1` [mocetinostat], the “induction of AvBD9 gene expression” value (AvBD9 mRNA expression; 2.5 μM mocetinostat alone) was 152 fold.
